# Test results reported in patent US9839627B2, “Methods of treating fragile X associated disorders, ADHD, and autism spectrum disorder” (Neurovance, Inc., priority 2013, dated 2017).
# Experiments:
# [1] = target: T1, monoamine oxidase A (MAO A) (Homo sapiens, UniProt P21397); test: metabolic pathway
# T1 sequence (P21397 1-527): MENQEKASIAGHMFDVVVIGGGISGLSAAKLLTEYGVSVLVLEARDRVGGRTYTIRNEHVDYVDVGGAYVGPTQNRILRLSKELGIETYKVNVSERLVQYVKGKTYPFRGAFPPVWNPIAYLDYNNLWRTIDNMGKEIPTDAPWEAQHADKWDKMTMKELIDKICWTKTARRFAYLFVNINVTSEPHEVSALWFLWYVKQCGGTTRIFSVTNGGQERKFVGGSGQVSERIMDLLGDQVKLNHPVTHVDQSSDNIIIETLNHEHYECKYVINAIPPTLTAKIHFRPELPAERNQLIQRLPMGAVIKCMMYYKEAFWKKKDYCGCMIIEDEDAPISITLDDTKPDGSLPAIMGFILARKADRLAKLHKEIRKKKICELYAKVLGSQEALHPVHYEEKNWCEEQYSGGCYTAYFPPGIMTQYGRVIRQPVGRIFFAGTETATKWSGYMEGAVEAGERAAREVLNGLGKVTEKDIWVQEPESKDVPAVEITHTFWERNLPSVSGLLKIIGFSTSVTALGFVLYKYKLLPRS
# dopamine reuptake (DA) = dopamine reuptake (DA) (Homo sapiens, UniProt Q01959); test: dopamine reuptake inhibition; type: biochemical; conditions: fraction of the potency towards NE reuptake
# [2] = target: serotonin reuptake (5-HT) (Homo sapiens, UniProt P31645); test: serotonin reuptake inhibition; type: biochemical; conditions: fraction of the potency towards NE reuptake
# [3] = target: norepinephrine reuptake (NE) (Homo sapiens, UniProt P23975); test: norepinephrine reuptake inhibition; type: biochemical; conditions: unbalanced triple reuptake inhibitor; compared with DA and 5-HT reuptake
# individuals with FXS = conditions: reported trials; failures due to aggravation of irritable, moody/perseverative and aggressive behaviors; cited from earlier work
# dopamine reuptake (DA), sequence (Q01959 whole entry): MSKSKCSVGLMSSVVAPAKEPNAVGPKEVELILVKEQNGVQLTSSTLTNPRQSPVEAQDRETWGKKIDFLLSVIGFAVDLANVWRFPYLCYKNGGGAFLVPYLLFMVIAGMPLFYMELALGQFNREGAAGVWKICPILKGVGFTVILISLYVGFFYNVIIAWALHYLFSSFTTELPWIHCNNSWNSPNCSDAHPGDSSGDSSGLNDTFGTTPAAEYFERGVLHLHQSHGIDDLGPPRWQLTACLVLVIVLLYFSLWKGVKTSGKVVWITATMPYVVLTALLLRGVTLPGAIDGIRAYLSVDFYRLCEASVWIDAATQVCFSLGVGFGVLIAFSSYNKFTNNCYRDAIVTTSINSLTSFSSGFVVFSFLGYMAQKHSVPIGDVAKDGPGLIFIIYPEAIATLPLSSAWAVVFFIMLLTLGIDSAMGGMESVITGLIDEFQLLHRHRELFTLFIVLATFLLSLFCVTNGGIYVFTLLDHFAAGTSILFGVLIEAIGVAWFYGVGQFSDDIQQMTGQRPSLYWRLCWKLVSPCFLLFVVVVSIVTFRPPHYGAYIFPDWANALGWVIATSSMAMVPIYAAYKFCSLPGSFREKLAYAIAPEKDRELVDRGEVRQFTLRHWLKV
# norepinephrine reuptake (NE), sequence (P23975 whole entry): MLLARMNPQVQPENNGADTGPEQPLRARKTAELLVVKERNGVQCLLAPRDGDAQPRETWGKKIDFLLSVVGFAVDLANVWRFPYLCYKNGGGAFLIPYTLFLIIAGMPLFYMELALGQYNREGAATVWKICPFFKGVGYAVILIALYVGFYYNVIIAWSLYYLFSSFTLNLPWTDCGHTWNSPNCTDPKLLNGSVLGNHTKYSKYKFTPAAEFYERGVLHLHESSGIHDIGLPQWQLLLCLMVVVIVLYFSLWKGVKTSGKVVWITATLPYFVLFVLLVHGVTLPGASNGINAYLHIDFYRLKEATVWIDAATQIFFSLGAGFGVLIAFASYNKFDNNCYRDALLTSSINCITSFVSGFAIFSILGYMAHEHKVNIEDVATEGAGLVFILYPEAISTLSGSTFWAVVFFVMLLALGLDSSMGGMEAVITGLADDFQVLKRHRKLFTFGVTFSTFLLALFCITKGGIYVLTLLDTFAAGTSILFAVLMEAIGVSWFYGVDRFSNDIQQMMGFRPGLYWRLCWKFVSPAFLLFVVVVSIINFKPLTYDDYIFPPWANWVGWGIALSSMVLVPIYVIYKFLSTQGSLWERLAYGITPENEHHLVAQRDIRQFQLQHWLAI
# serotonin reuptake (5-HT), sequence (P31645 whole entry): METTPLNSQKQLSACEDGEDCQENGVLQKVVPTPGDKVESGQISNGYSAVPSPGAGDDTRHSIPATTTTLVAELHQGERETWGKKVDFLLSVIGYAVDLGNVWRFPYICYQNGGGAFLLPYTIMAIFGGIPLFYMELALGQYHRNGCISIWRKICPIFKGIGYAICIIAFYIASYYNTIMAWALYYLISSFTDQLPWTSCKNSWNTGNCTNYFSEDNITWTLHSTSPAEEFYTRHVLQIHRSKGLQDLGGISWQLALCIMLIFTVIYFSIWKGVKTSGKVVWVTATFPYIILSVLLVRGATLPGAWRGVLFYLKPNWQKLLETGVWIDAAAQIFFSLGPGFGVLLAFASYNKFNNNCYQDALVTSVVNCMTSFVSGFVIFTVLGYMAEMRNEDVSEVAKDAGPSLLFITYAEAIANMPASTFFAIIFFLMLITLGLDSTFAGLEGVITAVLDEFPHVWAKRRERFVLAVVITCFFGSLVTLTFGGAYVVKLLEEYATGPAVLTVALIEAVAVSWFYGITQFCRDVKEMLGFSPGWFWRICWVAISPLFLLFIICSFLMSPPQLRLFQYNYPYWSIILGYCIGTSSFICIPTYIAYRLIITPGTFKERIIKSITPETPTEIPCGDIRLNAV
Compound,primary route of metabolism [1],potency towards dopamine reuptake relative to norepinephrine reuptake (dopamine reuptake (DA)),potency towards serotonin reuptake relative to norepinephrine reuptake [2],relative potency towards norepinephrine reuptake [3],outcome of treatment in individuals with FXS (individuals with FXS)
"c1ccc2cc([C@]34CNC[C@H]3C4)ccc2c1 [(1R,5S)-1-(naphthalen-2-yl)-3-azabicyclo[3.1.0]hexane]",primarily metabolized by monoamine oxidase A (MAO A),one-sixth,one-fourteenth,most potency,–
O=C1CCc2ccc(OCCCCN3CCN(c4cccc(Cl)c4Cl)CC3)cc2N1 [Aripiprazole],–,–,–,–,some individuals with FXS failed treatment
CNCC[C@@H](Oc1ccccc1C)c1ccccc1 [atomoxetine],–,–,–,–,unsuccessful
